Assay results as given in ChEMBL document CHEMBL3217664, “Synthesis and biological evaluation of 4-chlorocolchicine derivatives as potent anticancer agents with broad effective dosage ranges” (Medchemcomm, 2012).

Experiments:
Mus musculus [1] = assay: Toxicity in BALB/c mouse assessed as mortality at 3.75 mg/kg/day, iv administered on day 1, 5 and 9; type: organism-based; set-up: route intravenous; settings: in vivo
Mus musculus [2] = assay: Toxicity in BALB/c mouse assessed as mortality at 1.875 mg/kg/day, iv administered on day 1, 5 and 9; type: organism-based; set-up: route intravenous; settings: in vivo
HCT-116 [3] = assay: Antitumor activity against human HCT116 cells xenografted in BALB/c mouse assessed as tumor growth inhibition at 3.75 mg/kg/day, iv administered on day 1, 5 and 9 relative to control; type: functional; settings: HCT-116, 24 h, read-out: TGI
Mus musculus [4] = assay: Toxicity in BALB/c mouse assessed as mortality at 7.5 mg/kg/day, iv administered on day 1, 5 and 9; type: organism-based; set-up: route intravenous; settings: in vivo
HCT-116 [5] = assay: Antitumor activity against human HCT116 cells xenografted in BALB/c mouse assessed as tumor growth inhibition at 15 mg/kg/day, iv administered on day 1, 5 and 9 relative to control; type: functional; settings: HCT-116, 24 h, read-out: TGI
Liver = assay: Metabolic stability in BALB/c mouse liver microsomes at 1 umol/l by LC-MS/MS analysis; type: ADME; settings: 1 µM
Mus musculus [6] = assay: Toxicity in BALB/c mouse assessed as mortality at 15 mg/kg/day, iv administered on day 1, 5 and 9; type: organism-based; set-up: route intravenous; settings: in vivo
HCT-116 [7] = assay: Antitumor activity against human HCT116 cells xenografted in BALB/c mouse assessed as tumor growth inhibition at 7.5 mg/kg/day, iv administered on day 1, 5 and 9 relative to control; type: functional; settings: HCT-116, 24 h, read-out: TGI
HCT-116 [8] = assay: Antitumor activity against human HCT116 cells xenografted in BALB/c mouse assessed as tumor growth inhibition at 1.875 mg/kg/day, iv administered on day 1, 5 and 9 relative to control; type: functional; settings: HCT-116, 24 h, read-out: TGI
HCT-116 [9] = assay: Cytotoxicity against human HCT116 cells after 96 hrs by microplate reader analysis; type: functional, cell-based; settings: HCT-116, 96 h
A549 = assay: Cytotoxicity against human A549 cells after 96 hrs by microplate reader analysis; type: functional, cell-based; settings: A549, 96 h
HT-29 = assay: Cytotoxicity against human HT-29 cells after 96 hrs by microplate reader analysis; type: functional, cell-based; settings: HT-29, 96 h
HCT-116 [10] = assay: Antitumor activity against human HCT116 cells xenografted in BALB/c mouse assessed as tumor growth inhibition at 5 mg/kg/day, iv administered on day 1, 5 and 9 relative to control; type: functional; settings: HCT-116, 24 h, read-out: TGI
HCT-116 [11] = assay: Antitumor activity against human HCT116 cells xenografted in BALB/c mouse assessed as tumor growth inhibition at 10 mg/kg/day, iv administered on day 1, 5 and 9 relative to control; type: functional; settings: HCT-116, 24 h, read-out: TGI
Mus musculus [12] = assay: Toxicity in BALB/c mouse assessed as mortality at 5 mg/kg/day, iv administered on day 1, 5 and 9; type: organism-based; set-up: route intravenous; settings: in vivo
Mus musculus [13] = assay: Toxicity in BALB/c mouse assessed as mortality at 10 mg/kg/day, iv administered on day 1, 5 and 9; type: organism-based; set-up: route intravenous; settings: in vivo
HCT-116 [14] = assay: Antitumor activity against human HCT116 cells xenografted in BALB/c mouse assessed as tumor growth inhibition at 25 mg/kg/day, iv administered on day 1, 5 and 9 relative to control; type: functional; settings: HCT-116, 24 h, read-out: TGI
HCT-116 [15] = assay: Antitumor activity against human HCT116 cells xenografted in BALB/c mouse assessed as tumor growth inhibition at 12.5 mg/kg/day, iv administered on day 1, 5 and 9 relative to control; type: functional; settings: HCT-116, 24 h, read-out: TGI
Mus musculus [16] = assay: Toxicity in BALB/c mouse assessed as mortality at 12.5 mg/kg/day, iv administered on day 1, 5 and 9; type: organism-based; set-up: route intravenous; settings: in vivo

SMILES	IC50 (HCT-116 [9])	IC50 (A549)	IC50 (HT-29)	other results
COc1c(Cl)c2c(c(OC)c1OC)-c1ccc(OC)c(=O)cc1[C@@H](NC(C)=O)CC2	–	–	–	Activity (Mus musculus [1]): Non-toxic; Activity (Mus musculus [2]): Non-toxic; inhibition in vivo at 3.75 mg/kg/day (HCT-116 [3]): 56.4%; Activity (Mus musculus [4]): Non-toxic; inhibition in vivo at 15 mg/kg/day (HCT-116 [5]): 76.5%; Stability (Liver): 28 µL/min/mg; Activity (Mus musculus [6]): Non-toxic; inhibition in vivo at 7.5 mg/kg/day (HCT-116 [7]): 62.6%; inhibition in vivo at 1.875 mg/kg/day (HCT-116 [8]): 36.7%
COc1c(Cl)c2c(c(OC)c1OC)-c1ccc(OC)c(=O)cc1[C@@H](N)CC2	207 nM	241 nM	225 nM	–
COc1c(Cl)c2c(c(OC)c1OC)-c1ccc(OC)c(=O)cc1[C@@H](NC(=O)C(F)(F)F)CC2	1.5 nM	1.8 nM	1.5 nM	inhibition in vivo at 5 mg/kg/day (HCT-116 [10]): 30.6%; inhibition in vivo at 10 mg/kg/day (HCT-116 [11]): 62.7%; Activity (Mus musculus [12]): Non-toxic; Stability (Liver): 339 µL/min/mg; Activity (Mus musculus [13]): Non-toxic
CCC(=O)N[C@H]1CCc2c(Cl)c(OC)c(OC)c(OC)c2-c2ccc(OC)c(=O)cc21	7.5 nM	7.8 nM	3.3 nM	inhibition in vivo at 25 mg/kg/day (HCT-116 [14]): 76.1%; inhibition in vivo at 12.5 mg/kg/day (HCT-116 [15]): 57.3%; Activity (Mus musculus [16]): Non-toxic; Stability (Liver): 302 µL/min/mg
CCCC(=O)N[C@H]1CCc2c(Cl)c(OC)c(OC)c(OC)c2-c2ccc(OC)c(=O)cc21	7.6 nM	9.8 nM	8.3 nM	–
COc1c(Cl)c2c(c(OC)c1OC)-c1ccc(OC)c(=O)cc1[C@@H](NC(=O)CC(C)C)CC2	23.7 nM	40.3 nM	16.1 nM	–
CCCCCCC(=O)N[C@H]1CCc2c(Cl)c(OC)c(OC)c(OC)c2-c2ccc(OC)c(=O)cc21	36.9 nM	49.7 nM	38.3 nM	–
COc1c(Cl)c2c(c(OC)c1OC)-c1ccc(OC)c(=O)cc1[C@@H](NC(=O)C1CCCCC1)CC2	7.2 nM	10.4 nM	7.1 nM	–
COc1c(Cl)c2c(c(OC)c1OC)-c1ccc(OC)c(=O)cc1[C@@H](NC(=O)c1ccccc1)CC2	1.4 nM	4.7 nM	1.6 nM	–
COc1c(Cl)c2c(c(OC)c1OC)-c1ccc(OC)c(=O)cc1[C@@H](NC(=O)c1ccccc1F)CC2	1.6 nM	1.7 nM	1.5 nM	–
COc1c(Cl)c2c(c(OC)c1OC)-c1ccc(OC)c(=O)cc1[C@@H](NC(=O)c1cccc(F)c1)CC2	1.6 nM	3.5 nM	1.5 nM	–
COc1c(Cl)c2c(c(OC)c1OC)-c1ccc(OC)c(=O)cc1[C@@H](NC(=O)c1ccc(F)cc1)CC2	5.5 nM	6.7 nM	2.2 nM	–
COc1c(Cl)c2c(c(OC)c1OC)-c1ccc(OC)c(=O)cc1[C@@H](NC(=O)c1cc(F)c(F)c(F)c1)CC2	7.2 nM	6.6 nM	6.3 nM	–
COc1ccccc1C(=O)N[C@H]1CCc2c(Cl)c(OC)c(OC)c(OC)c2-c2ccc(OC)c(=O)cc21	26.4 nM	13.2 nM	12.5 nM	–
COc1cccc(C(=O)N[C@H]2CCc3c(Cl)c(OC)c(OC)c(OC)c3-c3ccc(OC)c(=O)cc32)c1	1.6 nM	2.7 nM	1.4 nM	–
COc1ccc(C(=O)N[C@H]2CCc3c(Cl)c(OC)c(OC)c(OC)c3-c3ccc(OC)c(=O)cc32)cc1	8 nM	3.8 nM	8 nM	–
COc1ccc(C(=O)N[C@H]2CCc3c(Cl)c(OC)c(OC)c(OC)c3-c3ccc(OC)c(=O)cc32)c(OC)c1	57.3 nM	85.4 nM	53.1 nM	–
COc1cc(OC)cc(C(=O)N[C@H]2CCc3c(Cl)c(OC)c(OC)c(OC)c3-c3ccc(OC)c(=O)cc32)c1	6.5 nM	14.2 nM	7.9 nM	–
COc1cc(C(=O)N[C@H]2CCc3c(Cl)c(OC)c(OC)c(OC)c3-c3ccc(OC)c(=O)cc32)cc(OC)c1OC	51.7 nM	124 nM	47.7 nM	–
